Values of other authors in patent publication US20030064123A1, “DHEA supplement for increasing women's libido” (priority 2001, published 2003).

Experiments:
[1] = post-menopausal women, oral DHEA 25 mg/day, after six months
[2] = test system: androgen-deficient female patients; details: testosterone injections
[3] = test system: ventrobasal complex of the thalamus; details: rat

C[C@]12CC[C@H](O)CC1=CC[C@@H]1[C@@H]2CC[C@]2(C)C(=O)CC[C@@H]12 [DHEA, Dihydroepiandosterone]
estrogen levels [1]: returned to premenopausal levels | testosterone levels [1]: returned to premenopausal levels

C[C@]12CC[C@H]3[C@@H](CCC4=CC(=O)CC[C@@]43C)[C@@H]1CC[C@@H]2O [testosterone]
libido and ability to become aroused and achieve a satisfactory orgasm [2]: resolved

N=C(N)NCCC[C@H](N)C(=O)O [L-arginine]
excitatory amino acid responses and sonato sensory transmission [3]: enhancement
